≈ marks a conversion by molar mass, not a printed value.
Key:
[1] = test system: Cryptococcus deuterogattii; assay: MIC/MFC broth microdilution (CLSI);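 also: broth microdilution per CLSI M27-Ed4. MFC is the lowest concentration yielding no colonies when MIC broths are subcultured onto SDA plates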
Procedure: (§1) Antifungal susceptibility was determined by broth microdilution according to the CLSI guidelines described in M27-Ed4 ([16]). […] MFC was determined by back-plating drug-treated cultures from MIC broths onto SDA plates. The MFC was defined as the lowest concentration from which no colonies could be cultured.

Candida parapsilosis = assay: MIC broth microdilution (CLSI); assay type: cell-based; conditions: Candida parapsilosis ATCC 22018
Procedure: as §1

Cryptococcus neoformans [2] = assay: MIC/MFC broth microdilution (CLSI);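 also: susceptibility testing followed the CLSI M27-Ed4 broth microdilution document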
Procedure: as §1

Trichophyton rubrum = assay: checkerboard drug interaction (FICI, MICc); assay type: cell-based;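 also: simplified diagonal checkerboard screen pairing azole antifungals with FPPS inhibitors, FICI calculated under the Loewe additivity model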
Procedure: (§2) Drug interactions between antifungals and FPPS inhibitors were investigated using a simplified checkerboard diagonal screening method ([45]). […] FICIs were determined according to the Loewe additivity model ([17]).

Candida albicans [3] = assay: MIC/MFC broth microdilution (CLSI); assay type: cell-based; conditions: Candida albicans SC5314
Procedure: as §1

Aspergillus fumigatus = assay: MIC/MFC broth microdilution (CLSI); conditions: ATCC204305
Procedure: as §1

Aspergillus flavus = assay: MIC/MFC broth microdilution (CLSI); conditions: ATCC204304
Procedure: as §1

Candida glabrata [4] = assay: MIC/MFC broth microdilution (CLSI);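 also: broth microdilution following CLSI M27-Ed4, MFC taken as the lowest drug level yielding no growth once MIC wells were subcultured on SDA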
Procedure: as §1

Cryptococcus neoformans [5] = assay: checkerboard drug interaction (FICI, MICc); assay type: cell-based; conditions: for INH FD (MIC-MICc fold decrease): fold decrease of inhibitor MIC;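 as to all read-outs here: antifungal plus FPPS inhibitor pairs tested against Cryptococcus neoformans by simplified diagonal checkerboard screening, FICI computed under the Loewe additivity model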
Procedure: as §2

Candida glabrata [6] = assay: checkerboard drug interaction (FICI, MICc); assay type: cell-based; conditions: for INH FD (MIC-MICc fold decrease): fold decrease of inhibitor MIC;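 as to all read-outs here: simplified diagonal checkerboard screen pairing antifungals with FPPS inhibitors, FICI calculated under the Loewe additivity model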
Procedure: as §2

Saccharomyces cerevisiae = assay: MIC/MFC broth microdilution (CLSI); assay type: cell-based; conditions: Saccharomyces cerevisiae S288c
Procedure: as §1

Candida albicans [7] = assay: checkerboard drug interaction (FICI, MICc); assay type: cell-based; conditions: for INH FD (MIC-MICc fold decrease): fold decrease of inhibitor MIC;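 as to all read-outs here: antifungal plus FPPS inhibitor combinations on Candida albicans tested by a simplified diagonal checkerboard screen, with FICI calculated under the Loewe additivity model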
Procedure: as §2

[8] = C. neoformans, FLC:INH combination
[9] = C. neoformans, ITR:INH combination
[10] = C. neoformans, KET:INH combination
[11] = C. glabrata, FLC:INH combination
[12] = C. glabrata, ITR:INH combination
[13] = C. glabrata, KET:INH combination
[14] = C. albicans, FLC:INH combination
[15] = C. albicans, ITR:INH combination
[16] = C. albicans, KET:INH combination

## O=P(O)(O)C(O)(Cn1ccnc1)P(=O)(O)O [ZOL, zoledronate]
[1]; Cryptococcus deuterogattii
  MFC: 128 µg/mL (≈ 470 µM)
  MIC: 128 µg/mL (≈ 470 µM)
[1]; Cryptococcus deuterogattii R265
  MIC / MEC: 128 µg/mL (≈ 470 µM)
Candida parapsilosis
  MIC / MEC: 128 µg/mL (≈ 470 µM)
Cryptococcus neoformans [2]; Cryptococcus neoformans
  MFC: > 128 µg/mL
  MIC: 32 µg/mL (≈ 118 µM)
Cryptococcus neoformans [2]; Cryptococcus neoformans H99
  MIC / MEC: 32 µg/mL (≈ 118 µM)
Trichophyton rubrum; 5FC:ZOL
  FICI: 2
Trichophyton rubrum; AMB:ZOL
  FICI: ≥4
Trichophyton rubrum; CAS:ZOL
  FICI: 0.5
Trichophyton rubrum; FLC:ZOL
  FICI: 0.5
Trichophyton rubrum; ITR:ZOL
  FICI: 0.75
Trichophyton rubrum; KET:ZOL
  FICI: 0.38
Trichophyton rubrum; T. rubrum, Fractional Inhibitory Concentration Index, fluconazole + inhibitor
  FICI (FLC:INH): 0.5
Trichophyton rubrum; T. rubrum, Fractional Inhibitory Concentration Index, itraconazole + inhibitor
  FICI (ITR:INH): 0.75
Trichophyton rubrum; T. rubrum, Fractional Inhibitory Concentration Index, ketoconazole + inhibitor
  FICI (KET:INH): 0.38
Trichophyton rubrum; T. rubrum, MIC of the inhibitor in combination with fluconazole
  INH MICc (FLC:INH): 32
Trichophyton rubrum; T. rubrum, MIC of the inhibitor in combination with itraconazole
  INH MICc (ITR:INH): 64
Trichophyton rubrum; T. rubrum, MIC of the inhibitor in combination with ketoconazole
  INH MICc (KET:INH): 16
Trichophyton rubrum; T. rubrum, MIC-MICc fold decrease of fluconazole, negative = increase
  FLC FD (FLC:INH): 4
Trichophyton rubrum; T. rubrum, MIC-MICc fold decrease of itraconazole, negative = increase
  ITR FD (ITR:INH): 4
Trichophyton rubrum; T. rubrum, MIC-MICc fold decrease of ketoconazole, negative = increase
  KET FD (KET:INH): 4
Trichophyton rubrum; T. rubrum, MIC-MICc fold decrease of the inhibitor, with fluconazole
  INH FD (FLC:INH): 4
Trichophyton rubrum; T. rubrum, MIC-MICc fold decrease of the inhibitor, with itraconazole
  INH FD (ITR:INH): 2
Trichophyton rubrum; T. rubrum, MIC-MICc fold decrease of the inhibitor, with ketoconazole
  INH FD (KET:INH): 8
Trichophyton rubrum; VOR:ZOL
  FICI: 0.38
Trichophyton rubrum; ZOL with 5FC
  bisphosphonate MICc: 128
Trichophyton rubrum; ZOL with AMB
  bisphosphonate MICc: 256
Trichophyton rubrum; ZOL with CAS
  bisphosphonate MICc: 32
Trichophyton rubrum; ZOL with FLC
  bisphosphonate MICc: 32
Trichophyton rubrum; ZOL with ITR
  bisphosphonate MICc: 64
Trichophyton rubrum; ZOL with KET
  bisphosphonate MICc: 16
Trichophyton rubrum; ZOL with VOR
  bisphosphonate MICc: 16
Trichophyton rubrum; with ITR, Trichophyton rubrum
  FICI: 0.75
Candida albicans [3]
  MFC: > 128 µg/mL
  MIC: 128 µg/mL (≈ 470 µM)
  MIC / MEC: 128 µg/mL (≈ 470 µM)
Aspergillus fumigatus
  MFC: > 128 µg/mL
  MIC: > 128 µg/mL
  MIC / MEC: >256 µg/mL
Aspergillus flavus
  MFC: > 128 µg/mL
  MIC: > 128 µg/mL
  MIC / MEC: >256 µg/mL
Candida glabrata [4]; Candida glabrata CBS138 (ATCC 2001)
  MIC / MEC: 8 µg/mL (≈ 29.4 µM)
Candida glabrata [4]; Nakaseomyces glabratus, CBS138
  MFC: 32 µg/mL (≈ 118 µM)
  MIC: 8 µg/mL (≈ 29.4 µM)
Cryptococcus neoformans [5]; 5FC:ZOL
  FICI: 0.75
Cryptococcus neoformans [5]; AMB:ZOL
  FICI: 2.25
Cryptococcus neoformans [5]; [8]
  FICI: 0.38
  INH FD (MIC-MICc fold decrease): 8
Cryptococcus neoformans [5]; C. neoformans, FLC:INH combination, MIC of the inhibitor in combination with FLC
  INH MICc: 8
Cryptococcus neoformans [5]; C. neoformans, FLC:INH combination, fold decrease of FLC MIC
  FLC FD (MIC-MICc fold decrease): 4
Cryptococcus neoformans [5]; [9]
  FICI: 0.19
  INH FD (MIC-MICc fold decrease): 16
Cryptococcus neoformans [5]; C. neoformans, ITR:INH combination, MIC of the inhibitor in combination with ITR
  INH MICc: 4
Cryptococcus neoformans [5]; C. neoformans, ITR:INH combination, fold decrease of ITR MIC
  ITR FD (MIC-MICc fold decrease): 8
Cryptococcus neoformans [5]; [10]
  FICI: 0.19
  INH FD (MIC-MICc fold decrease): 16
Cryptococcus neoformans [5]; C. neoformans, KET:INH combination, MIC of the inhibitor in combination with KET
  INH MICc: 4
Cryptococcus neoformans [5]; C. neoformans, KET:INH combination, fold decrease of KET MIC
  KET FD (MIC-MICc fold decrease): 8
Cryptococcus neoformans [5]; CAS:ZOL
  FICI: ≥4
Cryptococcus neoformans [5]; FLC:ZOL
  FICI: 0.38
Cryptococcus neoformans [5]; ITR:ZOL
  FICI: 0.19
Cryptococcus neoformans [5]; KET:ZOL
  FICI: 0.19
Cryptococcus neoformans [5]; VOR:ZOL
  FICI: 0.98
Cryptococcus neoformans [5]; ZOL with 5FC
  bisphosphonate MICc: 16
Cryptococcus neoformans [5]; ZOL with AMB
  bisphosphonate MICc: 8
Cryptococcus neoformans [5]; ZOL with CAS
  bisphosphonate MICc: 128
Cryptococcus neoformans [5]; ZOL with FLC
  bisphosphonate MICc: 8
Cryptococcus neoformans [5]; ZOL with ITR
  bisphosphonate MICc: 4
Cryptococcus neoformans [5]; ZOL with KET
  bisphosphonate MICc: 4
Cryptococcus neoformans [5]; ZOL with VOR
  bisphosphonate MICc: 16
Cryptococcus neoformans [5]; with FLC, Cryptococcus neoformans
  FICI: 0.38
Cryptococcus neoformans [5]; with ITR, Cryptococcus neoformans
  FICI: 0.19
Cryptococcus neoformans [5]; with KET, Cryptococcus neoformans
  FICI: 0.19
Candida glabrata [6]; 5FC:ZOL
  FICI: 0.63
Candida glabrata [6]; AMB:ZOL
  FICI: 0.63
Candida glabrata [6]; [11]
  FICI: 0.09
  INH FD (MIC-MICc fold decrease): 8
Candida glabrata [6]; C. glabrata, FLC:INH combination, MIC of the inhibitor in combination with FLC
  INH MICc: 1
Candida glabrata [6]; C. glabrata, FLC:INH combination, fold decrease of FLC MIC
  FLC FD (MIC-MICc fold decrease): 16
Candida glabrata [6]; [12]
  FICI: 0.16
  INH FD (MIC-MICc fold decrease): 8
Candida glabrata [6]; C. glabrata, ITR:INH combination, MIC of the inhibitor in combination with ITR
  INH MICc: 1
Candida glabrata [6]; C. glabrata, ITR:INH combination, fold decrease of ITR MIC
  ITR FD (MIC-MICc fold decrease): 8
Candida glabrata [6]; [13]
  FICI: 0.31
  INH FD (MIC-MICc fold decrease): 4
Candida glabrata [6]; C. glabrata, KET:INH combination, MIC of the inhibitor in combination with KET
  INH MICc: 2
Candida glabrata [6]; C. glabrata, KET:INH combination, fold decrease of KET MIC
  KET FD (MIC-MICc fold decrease): 4
Candida glabrata [6]; CAS:ZOL
  FICI: 2.05
Candida glabrata [6]; FLC:ZOL
  FICI: 0.09
Candida glabrata [6]; ITR:ZOL
  FICI: 0.16
Candida glabrata [6]; KET:ZOL
  FICI: 0.31
Candida glabrata [6]; VOR:ZOL
  FICI: 0.38
Candida glabrata [6]; ZOL with 5FC
  bisphosphonate MICc: 1
Candida glabrata [6]; ZOL with AMB
  bisphosphonate MICc: 1
Candida glabrata [6]; ZOL with CAS
  bisphosphonate MICc: 1
Candida glabrata [6]; ZOL with FLC
  bisphosphonate MICc: 1
Candida glabrata [6]; ZOL with ITR
  bisphosphonate MICc: 1
Candida glabrata [6]; ZOL with KET
  bisphosphonate MICc: 2
Candida glabrata [6]; ZOL with VOR
  bisphosphonate MICc: 1
Candida glabrata [6]; with FLC, Candida glabrata
  FICI: 0.09
Candida glabrata [6]; with ITR, Candida glabrata
  FICI: 0.16
Candida glabrata [6]; with KET, Candida glabrata
  FICI: 0.31
Saccharomyces cerevisiae
  MFC: > 128 µg/mL
  MIC: > 128 µg/mL
  MIC / MEC: 256 µg/mL (≈ 941 µM)
Candida albicans [7]; 5FC:ZOL
  FICI: 1.13
Candida albicans [7]; AMB:ZOL
  FICI: 1.25
Candida albicans [7]; [14]
  FICI: 0.53
  INH FD (MIC-MICc fold decrease): 32
Candida albicans [7]; C. albicans, FLC:INH combination, MIC of the inhibitor in combination with FLC
  INH MICc: 8
Candida albicans [7]; C. albicans, FLC:INH combination, fold decrease of FLC MIC
  FLC FD (MIC-MICc fold decrease): 2
Candida albicans [7]; [15]
  FICI: 1.13
  INH FD (MIC-MICc fold decrease): 8
Candida albicans [7]; C. albicans, ITR:INH combination, MIC of the inhibitor in combination with ITR
  INH MICc: 32
Candida albicans [7]; C. albicans, ITR:INH combination, fold decrease of ITR MIC
  ITR FD (MIC-MICc fold decrease): 1
Candida albicans [7]; [16]
  FICI: 1.13
  INH FD (MIC-MICc fold decrease): 8
Candida albicans [7]; C. albicans, KET:INH combination, MIC of the inhibitor in combination with KET
  INH MICc: 32
Candida albicans [7]; C. albicans, KET:INH combination, fold decrease of KET MIC
  KET FD (MIC-MICc fold decrease): 1
Candida albicans [7]; CAS:ZOL
  FICI: 2.17
Candida albicans [7]; FLC:ZOL
  FICI: 0.53
Candida albicans [7]; ITR:ZOL
  FICI: 1.13
Candida albicans [7]; KET:ZOL
  FICI: 1.13
Candida albicans [7]; VOR:ZOL
  FICI: 1.46
Candida albicans [7]; ZOL with 5FC
  bisphosphonate MICc: 16
Candida albicans [7]; ZOL with AMB
  bisphosphonate MICc: 32
Candida albicans [7]; ZOL with CAS
  bisphosphonate MICc: 32
Candida albicans [7]; ZOL with FLC
  bisphosphonate MICc: 8
Candida albicans [7]; ZOL with ITR
  bisphosphonate MICc: 32
Candida albicans [7]; ZOL with KET
  bisphosphonate MICc: 32
Candida albicans [7]; ZOL with VOR
  bisphosphonate MICc: 64
Candida albicans [7]; with FLC, Candida albicans
  FICI: 0.53
Candida albicans [7]; with ITR, Candida albicans
  FICI: 1.13
Candida albicans [7]; with KET, Candida albicans
  FICI: 1.13
